pIC50: −log10 of the molar value. Values after ≈ are worked out from the molar mass of the structure shown. Values joined by “and” are separate entries in the source; they are usually repeats but may differ in a detail not shown here. Equal entries are not always repeated. Where two headings read alike, the source gives them in different places.
Columns and labels:
[1] = test system: human small cell lung cancer cell (NCI-H187); experiment: Cytotoxicity, resazurin microplate assay (REMA), NCI-H187; conditions: for IC50: Homo sapiens, NCI-H187, 120 h, read-out: Cytotoxicity (IC50) NCI-H187; for Selectivity Index NCI-H187: IC50 on Vero cells divided by IC50 for NCI-H187 cells
[2] = test system: human oral cavity cancer cell (KB); experiment: Cytotoxicity, resazurin microplate assay (REMA), KB; conditions: for IC50 / pIC50: Homo sapiens, KB, 120 h, read-out: Cytotoxicity (IC50) KB, KB cells, REMA, 5 days; for pIC50: value in parentheses; for Selectivity Index KB: IC50 on Vero cells divided by IC50 for KB cells; for Cytotoxicity (IC50) KB: KB cells, REMA, 5 days
in vitro = conditions: African green monkey, Vero cells (African green monkey kidney, non-cancerous)
[3] = test system: Mycobacterium tuberculosis H37Ra; experiment: Antimycobacterial activity, green fluorescent protein microplate assay (GFPMA); type: cell-based; conditions: M. tuberculosis H37Ra, MIC = lowest concentration effecting inhibition of ≥90%; for MIC: Mycobacterium tuberculosis, read-out: Anti-TB (MIC)
Method: The antimycobacterial activity was assessed against Mycobacterium tuberculosis H37Ra using the green fluorescent protein microplate assay (GFPMA). The lowest drug concentration effecting and inhibition of ≥90% was considered the MIC.

[4] = test system: human breast cancer cell (MCF7); experiment: Cytotoxicity, resazurin microplate assay (REMA), MCF7; conditions: for Cytotoxicity (IC50) MCF7: MCF7 cells, REMA, 5 days; for IC50: Homo sapiens, MCF7, 120 h, read-out: Cytotoxicity (IC50) MCF7; for Selectivity Index MCF7: IC50 on Vero cells divided by IC50 for MCF7 cells
B16 cells = test system: B16 cells; parameters: method as in PMID 9873721; conditions: cited from earlier work
SNU-1 cells = test system: SNU-1 cells; parameters: method as in PMID 9873721; conditions: cited from earlier work
P388 cells = test system: P388 cells; parameters: method as in PMID 9873721; conditions: cited from earlier work
NCI-H187 cell = conditions: cited from earlier work
[5] = test system: African green monkey kidney (Vero) cell line; experiment: Cytotoxicity against non-cancerous cells, GFP detection; conditions: 4 days, Undetectable = at concentration ≤50 μg/mL
V-79 cell = test system: V-79 cell; parameters: method as in PMID 3222377, PMID 21106458; conditions: cited from earlier work
A-549 cell line = test system: A-549 cell line; parameters: method as in PMID 21106458; conditions: read-out: LC50 A-549 cell line; cited from earlier work
MCF-7 cells = test system: MCF-7 cells; parameters: method as in PMID 21106458; conditions: read-out: LC50 MCF-7 cells; cited from earlier work
KB cell = test system: KB cell; parameters: method as in PMID 18932088; conditions: cited from earlier work
HeLa cells = test system: HeLa cells; parameters: method as in PMID 21106458; conditions: cited from earlier work
SK-N-SH cells = test system: SK-N-SH cells; parameters: method as in PMID 21106458; conditions: read-out: LC50 SK-N-SH cells; cited from earlier work

SMILES | IC50 [1] | Selectivity Index NCI-H187 [1] | IC50 [2] | pIC50 [2] | Selectivity Index KB [2] | IC50 at 4 days (in vitro) | Anti-TB (MIC) [3] | MIC [3] | IC50 [4] | further results
C=C1CC[C@H]2C(C)(C)CCC[C@]2(C)[C@H]1CC=C(C=O)CC(=O)O (stereo in doubt) [Compound 9, zerumin A] | 33.5 µg/mL and 105 µM | 1.5 | 47.4 µg/mL | 3.83 | 1.0 | 49.5 µg/mL and 155 µM | Inactive | – | – | Cytotoxicity (IC50) MCF7 [4]: Inactive
C=C1CC[C@H]2C(C)(C)CCC[C@]2(C)[C@H]1/C=C/c1ccoc1 [Compound 1, coronarin E] | 18.1 µg/mL and 63.5 µM | 1.4 | 9.67 µg/mL | 4.47 | 2.6 | 25.4 µg/mL and 89.2 µM | – | 12.5 µg/mL (≈ 43.9 µM) | – | IC50 B16 cells (B16 cells): 18.8 µg/mL (≈ 66.1 µM); IC50 SNU-1 cells (SNU-1 cells): 8.0 µg/mL (≈ 28.1 µM); IC50 P388 cells (P388 cells): 10.0 µg/mL (≈ 35.2 µM); pIC50 (NCI-H187 cell): 4.30; Cytotoxicity (IC50) MCF7 [4]: Inactive
C=C1CC[C@H]2C(C)(C)CCC[C@]2(C)[C@H]1/C=C/C(C)=O [Compound 2, (E)-15,16-bisnorlabda-8(17),11-dien-13-one] | 21.7 µg/mL and 83.2 µM | – | 37 µg/mL | 3.85 | – | > 192 µM | Inactive | – | 49.2 µg/mL and 189 µM | melting point: 146 to 147 °C; Cytotoxicity (IC50) Vero Cell [5]: Undetectable ^2
C=C1CC[C@H]2C(C)(C)CCC[C@]2(C)[C@H]1/C=C/C(=O)O [Compound 3, (E)-14,15,16-trinorlabda-8(17),11-dien-13-oic acid] | 49.2 µg/mL and 188 µM | – | – | – | – | > 191 µM | Inactive | – | – | Cytotoxicity (IC50) KB [2]: Inactive; Cytotoxicity (IC50) Vero Cell [5]: Undetectable ^2; Cytotoxicity (IC50) MCF7 [4]: Inactive
C=C1CC[C@H]2C(C)(C)CCC[C@]2(C)[C@H]1/C=C/C1=CCOC1=O [Compound 4, villosin] | 0.12 µg/mL and 400 nM | >416.7 | 4.1 µg/mL | 4.86 | – | > 166 µM | Inactive | – | 8.5 µg/mL and 28.3 µM | Cytotoxicity (IC50) Vero Cell [5]: Undetectable ^2
C=C1CC[C@H]2C(C)(C)CCC[C@]2(C)[C@H]1C/C=C(/C=O)CC=O [Compound 5, (E)-labda-8(17),12-dien-15,16-dial] | 11.2 µg/mL and 36.9 µM | 2.0 | 29.1 µg/mL | 4.02 | 0.8 | 22.5 µg/mL and 74.5 µM | Inactive | – | 22.6 µg/mL and 74.6 µM | IC50 V-79 cell (V-79 cell): 18.5 µg/mL (≈ 61.2 µM); Selectivity Index MCF7 [4]: 1.0
C=C1CCC2C(C)(C)CCC[C@]2(C)[C@H]1/C=C/C1=CC(OC)OC1=O (stereo partly drawn) [Compound 6, 15-methoxylabda-8(17),11,13-trien-15,16-olide] | 0.9 µg/mL and 2.72 µM | 50.7 | 23.8 µg/mL | 4.14 | 1.9 | 45.6 µg/mL and 138 µM | Inactive | – | 49.2 µg/mL and 149 µM | Selectivity Index MCF7 [4]: 0.9
C=C1CC[C@H]2C(C)(C)CCC[C@]2(C)[C@H]1/C=C/C1=CC(=O)OC1O (stereo partly drawn) [Compound 7, 16-hydroxylabda-8(17),11,13-trien-15,16-olide] | 0.72 µg/mL and 2.18 µM | 7.5 | 0.92 µg/mL | 5.56 | 5.9 | 5.37 µg/mL and 16.2 µM | – | 6.25 µg/mL (≈ 19.8 µM) | 2.89 µg/mL and 8.75 µM | Cytotoxicity (IC50) KB [2]: 0.91 µg/mL; Selectivity Index MCF7 [4]: 1.9
C=C1CC[C@H]2C(C)(C)CCC[C@]2(C)[C@H]1C/C=C1\CC(O)OC1=O (stereo partly drawn) [Compound 8, coronarin D] | 25.7 µg/mL and 80.8 µM | 1.9 | 40 µg/mL | 3.90 | 1.2 | 48.9 µg/mL and 154 µM | Inactive | – | 16.2 µg/mL and 51 µM | CC50 (A-549 cell line): 14 µM; CC50 (MCF-7 cells): 21.9 µM; IC50 KB cell, previous reported (KB cell): 14.7 µg/mL (≈ 46.2 µM); LC50 (HeLa cells): 60.6 µM; IC50 V-79 cell (V-79 cell): 17.0 µg/mL (≈ 53.4 µM); CC50 (SK-N-SH cells): 32 µM; IC50 NCI-H187 cell, previous reported (NCI-H187 cell): 9.8 µg/mL (≈ 30.8 µM); Selectivity Index MCF7 [4]: 3.0
C=C1CC[C@H]2C(C)(C)CCC[C@]2(C)[C@H]1C[C@@H](O)C1=CC(O)OC1=O (stereo partly drawn) [Compound 10, zerumin B] | 6.14 µg/mL and 18.4 µM | 4.0 | 13.1 µg/mL | 4.41 | 1.9 | 24.7 µg/mL and 73.8 µM | Inactive | – | 13.3 µg/mL and 39.7 µM | Selectivity Index MCF7 [4]: 1.9
COc1cccc2c1C(=O)c1c(O)c3c(c(O)c1C2=O)C[C@@](O)(C(=O)CO)C[C@@H]3O[C@H]1C[C@H](N)[C@H](O)[C@H](C)O1 [Doxorubicin, reference compound] | 0.053 µg/mL and 100 nM | – | 0.117 µg/mL | 6.66 | – | – | – | – | 0.663 µg/mL and 1.22 µM | –
Cc1c2ccncc2c(C)c2c1[nH]c1ccccc12 [Ellipticine, reference compound] | 0.44 µg/mL and 1.79 µM | 3.1 | 0.302 µg/mL | 5.91 | 4.5 | 1.34 µg/mL and 5.46 µM | – | – | – | –
CC[C@@H](CO)NCCN[C@@H](CC)CO [ethambutol, reference compound] | – | – | – | – | – | – | – | 0.234 to 0.469 µg/mL (≈ 1.15 to 2.3 µM) | – | –
NNC(=O)c1ccncc1 [isoniazid, reference compound] | – | – | – | – | – | – | – | 0.0234 to 0.0468 µg/mL (≈ 0.171 to 0.341 µM) | – | –
CC1COc2c(N3CCN(C)CC3)c(F)cc3c(=O)c(C(=O)O)cn1c23 (stereo not drawn) [oflaxacin, reference compound] | – | – | – | – | – | – | 0.391 to 0.781 µg/mL | – | – | –
CO[C@H]1/C=C/O[C@@]2(C)Oc3c(C)c(O)c4c(O)c(c(/C=N/N5CCN(C)CC5)c(O)c4c3C2=O)NC(=O)/C(C)=C\C=C\[C@H](C)[C@H](O)[C@@H](C)[C@@H](O)[C@@H](C)[C@H](OC(C)=O)[C@@H]1C [rifampicine, reference compound] | – | – | – | – | – | – | – | 0.00312 to 0.025 µg/mL (≈ 0.00379 to 0.0304 µM) | – | –
[H]/N=C(/N)N[C@H]1[C@H](O)[C@@H](O)[C@H](O[C@@H]2O[C@@H](C)[C@](O)(C=O)[C@H]2O[C@@H]2O[C@@H](CO)[C@H](O)[C@@H](O)[C@@H]2NC)[C@@H](N/C(N)=N\[H])[C@@H]1O [streptomycin, reference compound] | – | – | – | – | – | – | – | 0.156 to 0.313 µg/mL (≈ 0.268 to 0.538 µM) | – | –

— PMC6273991, “Cytotoxic Labdane Diterpenes from Hedychium ellipticum Buch.-Ham. ex Sm” (Molecules, 2016)
